In PMC10298275, “Antiproliferative Activity and Impact on Human Gut Microbiota of New O-Alkyl Derivatives of Naringenin and Their Oximes” (International Journal of Molecular Sciences, 2023):
Converted amounts (≈) assume the structure as drawn. Read-outs that look alike come from different tables or passages of the source.

Key:
[1] = tested on: Enterococcus faecalis ATCC 29212; test: MIC, microdilution method; type: cell-based; conditions: E. faecalis ATCC 29212, MHB, 24 h, 37 °C, tested 512 to 1 µg/mL
Protocol: (§1) Non-pathogenic reference strains representing the intestinal microbiome were used for the studies: Escherichia coli K12, Staphylococcus aureus ATCC 25923 and Enterococcus faecalis ATCC 29212. All strains were obtained from the collection of the Department of Microbiology at the Medical University of Wrocław.
(§2) The strains were received from the museum (−80 °C) and grown in tryptic soy broth (TSB, OXOID, Basingstoke, UK) under continuous shaking conditions (MaxQTM6000 incubator shaker, Thermo Scientific, Waltham, MA, USA) at 125 rpm at 37 °C. Then, they were moved to the growth media, namely tryptic soy agar (TSA, OXOID, Basingstoke, UK) and MacConkey agar (MC, Millipore, Darmstadt, Germany) for S. aureus or E. faecalis and E. coli, respectively.
(§3) A fresh 18–24 h culture was used for each study. For this purpose, a culture with a density of 1.5 × 10^8 CFU/mL in Mueller–Hinton broth (MHB, OXOID, Basingstoke, UK) was prepared and used for further microdilution studies.
(§4) The antimicrobial activity of the O-alkyl derivatives of naringenin and their oximes was tested in vitro using the microdilution method, showing the minimum inhibitory concentration (MIC), in accordance with the recommendations of the European Antimicrobial Susceptibility Testing Committee EUCAST [44]. MICs were determined in 96-well microdilution plates. The tests were carried out in MHB medium. The O-alkyl derivatives of naringenin and their oximes were tested in the concentration range of 512 to 1 µg/mL in a geometric process in MHB medium. The final concentration of the test strains in each test well was 5 × 10^5 CFU/mL. MICs were read after 18 h (for E. coli and S. aureus) and 24 h (for E. faecalis) incubation at 37 °C.
(§5) A strain growth control (tested strain in medium), background control for tested compounds (naringenin derivatives in MHB), medium control (only pure MHB) and compound solvent control (DMSO at test compound concentration, strain and MHB) were set for each experiment. Each test was set up with three independent experiments, each as three separate replicates.
(§6) The […], OD600, was measured in a plate reader (ASYS UVM340, BIOCHROM Ltd., Cambridge, UK). The background control of the tested compounds and the clean medium were included in the absorbance results.

[2] = tested on: Staphylococcus aureus ATCC 25923; test: MIC, microdilution method; type: cell-based; conditions: Staphylococcus aureus, ATCC25923; S. aureus ATCC 25923; MHB, 18 h, 37 °C; tested 512 to 1 µg/mL; read-out: MIC
Protocol: as §1, §2, §3, §4, §5, §6

[3] = tested on: Escherichia coli K12; test: MIC, microdilution method; type: cell-based; conditions: Escherichia coli; E. coli K12; MHB, 18 h, 37 °C; tested 512 to 1 µg/mL; read-out: MIC
Protocol: as §1, §2, §3, §4, §5, §6

[4] = SRB assay, cytotoxicity; type: cell-based, mouse; conditions: mouse, 3T3-L1 cells; 3T3-L1, SRB, 24 h exposure, three independent repeats; read-out: Cytotoxicity (IC50 ± SD)
Protocol: (§7) The HT-29 cells (ATCC, Manassas, VA, USA) were cultured within α-MEM (IIET PAS, Wrocław, Poland) supplemented with 10% fetal bovine serum (Sigma, St. Louis, MO, USA), antimycotic (100 μg/mL penicillin, 100 μg/mL streptomycin and 0.25 μg/mL amphotericin) (Sigma) and 2 mM glutamine (Sigma). The 3T3-L1 cells (ATCC, Manassas, VA, USA) were cultivated using DMEM high-glucose medium (IIET PAS, Wrocław, Poland) supplemented as above. Both cell lines were cultured at 37 °C in an atmosphere of 5% CO2.
(§8) The sulforhodamine B (SRB) assay was performed according to a previously published protocol. Briefly, 1 × 10^4 HT-29 or 5 × 10^3 3T3-L1 cells were seeded into 96-well plates. After attaching to the plate surface, the cells were incubated with 100, 75, 50, 25, 10 or 1 µg/mL of the investigated compounds for 24 h. After this time, proteins were precipitated with trichloroacetic acid and stained with SRB. The absorbance was measured at 560 nm using a GloMax Discover Microplate Reader (Promega, Madison, WI, USA).

[5] = tested on: Enterococcus faecalis ATCC 29212; test: MBC assay; type: cell-based; conditions: Enterococcus faecalis, ATCC29212; E. faecalis ATCC 29212; read-out: MBC
Protocol: (§9) The minimum bactericidal concentration (MBC) was tested for all naringenin derivatives. First, 10 µL of medium was taken from the plate, on which the MIC was determined for the MIC value, the value below and the two values above. This volume was transferred to TSA or MC agar. After 18–24 h (depending on strain) incubation at 37 °C, colonies were counted. The concentration of test compounds at which no bacterial growth was observed was defined as the MBC value. Each experiment was repeated 3 times.

[6] = tested on: Staphylococcus aureus ATCC 25923; test: MBC assay; type: cell-based; conditions: Staphylococcus aureus, ATCC25923; S. aureus ATCC 25923; read-out: MBC
Protocol: as §9

[7] = tested on: Escherichia coli K12; test: MBC assay; type: cell-based; conditions: Escherichia coli; E. coli K12; read-out: MBC
Protocol: as §9

[8] = tested on: HT-29 cells; test: MTT assay, cell viability; type: cell-based, human; conditions: 24 h; for effect on colon adenocarcinoma cells (viability, MTT): HT-29, highest concentration 100 µg/mL; for reduction in cell viability: HT-29, MTT, 10 µg/mL dose
Protocol: as §7
First, 1 × 10^4 HT-29 cells or 5 × 10^3 3T3-L1 cells were seeded into a 96-well plate and incubated for one night. Then, cells were treated with different concentrations of the investigated compounds within 24 h. Afterwards, the medium was replaced with a fresh medium containing 0.5 mg/mL of 3-(4,5-dimethylthiazol-2-yl)-2,5-diphenyl-2H-tetrazolium bromide (MTT, Sigma) and incubated for 2 h at 37 °C. After removing the medium, the formazan salts were dissolved in dimethyl sulfoxide (DMSO, Sigma), and the absorbance of the solution was measured at 560 nm using a plate reader.

[9] = SRB assay, cytotoxicity; type: cell-based, human; conditions: human, HT-29 cells; HT-29, SRB, 24 h exposure, three independent repeats; read-out: Cytotoxicity (IC50 ± SD)
Protocol: as §7, §8

[10] = tested on: HT-29 cells; test: SRB assay, cytotoxicity; type: cell-based, human; conditions: HT-29, SRB, up to 100 µg/mL
Protocol: as §7, §8

[11] = Enterococcus faecalis, ATCC29212, read-out: MIC

Structure (SMILES) | MIC [1, 11] | MIC [2] | MIC [3] | IC50 at 24 h [4] | melting point | MBC [5] | MBC [6] | MBC [7] | effect on colon adenocarcinoma cells (viability, MTT) [8] | IC50 at 24 h [9] | MIC [1] | effect on the proliferation of the HT-29 cell line [10] | reduction in cell viability [8]
CCCCCCCCOc1cc(O)c2c(c1)O[C@H](c1ccc(O)cc1)CC2=O [A5, 7-O-Octylnaringenin] | 16 µg/mL (≈ 41.6 µM) | 8 µg/mL (≈ 20.8 µM) | > 512 µg/mL | 8.86 ± 0.67 µg/mL (≈ 23 µM) | 111 to 113 °C | > 512 µg/mL | > 512 µg/mL | > 512 µg/mL | completely inhibited | 14.63 ± 0.13 µg/mL (≈ 38.1 µM) | – | – | –
CCCCCCCCOc1ccc([C@@H]2CC(=NO)c3c(O)cc(OCCCCCCCC)cc3O2)cc1 [B6, 7,4′-Di-O-octylnaringenin oxime] | > 512 µg/mL | > 512 µg/mL | > 512 µg/mL | > 100 µg/mL | 85 to 86 °C | > 512 µg/mL | > 512 µg/mL | > 512 µg/mL | – | > 100 µg/mL | >512 (>512) µg/mL | no effect on the proliferation | –
CCCCCCCOc1cc(O)c2c(c1)O[C@H](c1ccc(O)cc1)CC2=NO [B3, 7-O-Heptylnaringenin oxime] | 16 µg/mL (≈ 41.5 µM) | 64 µg/mL (≈ 166 µM) | > 512 µg/mL | 7.77 ± 1.11 µg/mL (≈ 20.2 µM) | 186 to 187 °C | 512 µg/mL (≈ 1330 µM) | 128 µg/mL (≈ 332 µM) | > 512 µg/mL | – | 11.3 ± 0.81 µg/mL (≈ 29.3 µM) | – | – | more than 50%
CCCCCCCOc1cc(O)c2c(c1)O[C@H](c1ccc(O)cc1)CC2=O [A3, 7-O-Heptylnaringenin] | 32 µg/mL (≈ 86.4 µM) | 16 µg/mL (≈ 43.2 µM) | > 512 µg/mL | 7.61 ± 1.2 µg/mL (≈ 20.5 µM) | 114 to 115 °C | > 512 µg/mL | > 512 µg/mL | > 512 µg/mL | completely inhibited | 14.2 ± 0.56 µg/mL (≈ 38.3 µM) | – | – | –
CCCCCCCCCOc1cc(O)c2c(c1)O[C@H](c1ccc(O)cc1)CC2=NO [B7, 7-O-Nonylnaringenin oxime] | 8 µg/mL (≈ 19.3 µM) | 128 µg/mL (≈ 310 µM) | > 512 µg/mL | 6.08 ± 0.64 µg/mL (≈ 14.7 µM) | 176 to 178 °C | > 512 µg/mL | > 512 µg/mL | > 512 µg/mL | – | 11.2 ± 1.27 µg/mL (≈ 27.2 µM) | – | – | more than 50%
CCCCCCCCCOc1cc(O)c2c(c1)O[C@H](c1ccc(O)cc1)CC2=O [A7, 7-O-Nonylnaringenin] | 16 µg/mL (≈ 40.2 µM) | 16 µg/mL (≈ 40.2 µM) | > 512 µg/mL | 8.65 ± 0.71 µg/mL (≈ 21.7 µM) | 115 to 116 °C | > 512 µg/mL | > 512 µg/mL | > 512 µg/mL | completely inhibited | 15 ± 0.41 µg/mL (≈ 37.7 µM) | – | – | –
CCCCCCCCOc1cc(O)c2c(c1)O[C@H](c1ccc(O)cc1)CC2=NO [B5, 7-O-Octylnaringenin oxime] | 16 µg/mL (≈ 40.1 µM) | 256 µg/mL (≈ 641 µM) | > 512 µg/mL | 7.1 ± 1.57 µg/mL (≈ 17.8 µM) | 183 to 185 °C | 256 µg/mL (≈ 641 µM) | > 512 µg/mL | > 512 µg/mL | – | 9.96 ± 1.13 µg/mL (≈ 24.9 µM) | – | – | more than 50%
CCCCCCOc1cc(O)c2c(c1)O[C@H](c1ccc(O)cc1)CC2=NO [B1, 7-O-hexylnaringenin oxime] | 16 µg/mL (≈ 43.1 µM) | 8 µg/mL (≈ 21.5 µM) | > 512 µg/mL | 8.3 ± 0.72 µg/mL (≈ 22.3 µM) | – | 256 µg/mL (≈ 689 µM) | 32 µg/mL (≈ 86.2 µM) | > 512 µg/mL | – | 11.3 ± 1.63 µg/mL (≈ 30.5 µM) | – | – | more than 50%
CCCCCCOc1cc(O)c2c(c1)O[C@H](c1ccc(O)cc1)CC2=O [A1, 7-O-hexylnaringenin] | 16 µg/mL (≈ 44.9 µM) | 16 µg/mL (≈ 44.9 µM) | > 512 µg/mL | 10.8 ± 1.1 µg/mL (≈ 30.4 µM) | – | > 512 µg/mL | > 512 µg/mL | > 512 µg/mL | completely inhibited | 14.3 ± 0.84 µg/mL (≈ 40.1 µM) | – | – | –
